“And” between values parts separate entries of the source, which are not always exact repeats. Equal entries are not always repeated. “Also recorded” adds a separate entry of the source. Where two headings read alike, the source gives them in different places.
Tests used:
[1] = target: 5-HT2BR wild-type (Homo sapiens, UniProt P41595); assay: Gq-mediated calcium flux FLIPR assay; conditions: for Gq calcium flux Emax: normalized to percent 5-HT stimulation; for EC50: agonist mode, N=3
[2] = target: T1, 5-HT2BR T140V^3.37 (Homo sapiens, UniProt P41595, T140V); conditions: T140V^3.37 mutant, relative to wild-type
[3] = target: T2, 5-HT2BR T140A^3.37 (Homo sapiens, UniProt P41595, T140A); assay: [3H]-LSD competitive radioligand binding; conditions: T140A^3.37 mutant, relative to wild-type
[4] = target: T2, 5-HT2BR T140A^3.37; assay: β-Arrestin2 recruitment Tango assay; conditions: T140A^3.37 mutant
[5] = target: T2, 5-HT2BR T140A^3.37; conditions: T140A^3.37 mutant, relative to wild-type
[6] = target: T3, 5-HT2BR A225S^5.46 (Homo sapiens, UniProt P41595, A225S); assay: [3H]-LSD competitive radioligand binding; conditions: A225S^5.46 mutant, relative to wild-type
[7] = target: T4, 5-HT2BR T140S^3.37 (Homo sapiens, UniProt P41595, T140S); assay: [3H]-LSD competitive radioligand binding; conditions: T140S^3.37 mutant, relative to wild-type
[8] = target: T3, 5-HT2BR A225S^5.46; assay: Gq-mediated calcium flux FLIPR assay
[9] = target: T1, 5-HT2BR T140V^3.37; assay: [3H]-LSD competitive radioligand binding; conditions: T140V^3.37 mutant, relative to wild-type
[10] = target: T5, 5-HT2BR A225G^5.46 (Homo sapiens, UniProt P41595, A225G); assay: [3H]-LSD competitive radioligand binding; conditions: A225G^5.46 mutant, relative to wild-type
[11] = target: T5, 5-HT2BR A225G^5.46; assay: Gq-mediated calcium flux FLIPR assay; conditions: for Emax: read-out: Gq calcium flux Emax
[12] = target: 5-HT2BR WT (Homo sapiens, UniProt P41595); assay: β-Arrestin2 recruitment Tango assay
[13] = target: T4, 5-HT2BR T140S^3.37; assay: Gq-mediated calcium flux FLIPR assay
[14] = target: T6, 5-HT2BR L362F^7.35 (Homo sapiens, UniProt P41595, L362F); conditions: L362F^7.35 mutant
[15] = target: 5-HT2BR L362A^7.35 (Homo sapiens, UniProt P41595, L362A); assay: Gq-mediated calcium flux FLIPR assay; conditions: L362A^7.35 mutant, % 5-HT
[16] = target: T6, 5-HT2BR L362F^7.35; assay: [3H]-LSD dissociation radioligand binding assay; conditions: L362F^7.35 vs WT
[17] = target: T6, 5-HT2BR L362F^7.35; assay: BRET β-arrestin2 recruitment assay; conditions: L362F^7.35 mutant
[18] = target: T7, 5-HT2BR (Homo sapiens, UniProt P41595); assay: Phosphoinositide; assay type: cell-based
[19] = target: T7, 5-HT2BR; assay: BRET β-arrestin2 recruitment assay
[20] = target: T6, 5-HT2BR L362F^7.35; assay: Gq-mediated calcium flux FLIPR assay; conditions: L362F^7.35 mutant
[21] = read-out: Gq calcium flux EC50, 5-HT2BR wild-type

T1 sequence (P41595 whole entry T140V): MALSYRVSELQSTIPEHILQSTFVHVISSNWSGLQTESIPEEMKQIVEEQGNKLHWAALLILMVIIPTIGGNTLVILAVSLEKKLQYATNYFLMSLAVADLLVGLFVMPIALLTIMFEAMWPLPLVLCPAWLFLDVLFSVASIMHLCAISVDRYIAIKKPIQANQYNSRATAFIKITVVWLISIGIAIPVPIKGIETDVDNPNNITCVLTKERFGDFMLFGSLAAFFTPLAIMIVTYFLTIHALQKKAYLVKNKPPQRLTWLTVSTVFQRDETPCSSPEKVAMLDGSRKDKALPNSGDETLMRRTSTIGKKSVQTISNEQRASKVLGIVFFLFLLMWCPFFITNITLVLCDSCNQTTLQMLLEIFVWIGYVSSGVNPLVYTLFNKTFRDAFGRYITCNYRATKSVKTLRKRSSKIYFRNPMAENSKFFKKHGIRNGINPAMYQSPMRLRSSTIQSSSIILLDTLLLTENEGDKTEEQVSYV
Chain of 5-HT2BR WT (P41595 whole entry): as the sequence (P41595 whole entry T140V) above, with V140T counted along it
T7 sequence (P41595 whole entry): as the sequence (P41595 whole entry T140V) above, with V140T counted along it
Chain of 5-HT2BR wild-type (P41595 whole entry): as the sequence (P41595 whole entry T140V) above, with V140T counted along it
T5 sequence (P41595 whole entry A225G): as the sequence (P41595 whole entry T140V) above, with V140T, A225G counted along it
T6 sequence (P41595 whole entry L362F): as the sequence (P41595 whole entry T140V) above, with V140T, L362F counted along it
T2 sequence (P41595 whole entry T140A): as the sequence (P41595 whole entry T140V) above, with V140A counted along it
T4 sequence (P41595 whole entry T140S): as the sequence (P41595 whole entry T140V) above, with V140S counted along it
T3 sequence (P41595 whole entry A225S): as the sequence (P41595 whole entry T140V) above, with V140T, A225S counted along it
Chain of 5-HT2BR L362A^7.35 (P41595 whole entry L362A): as the sequence (P41595 whole entry T140V) above, with V140T, L362A counted along it

COc1ccc(CC2NCCc3c2[nH]c2ccccc32)c(Cl)c1OC (centres unmarked) [des-methyl LY266097 analog]
Gq calcium flux Emax ([1]; 5-HT2BR wild-type): 93% | EC50 [1, 21]: 20 nM

CN1C[C@H](C(=O)N[C@]2(C)O[C@@]3(O)[C@@H]4CCCN4C(=O)[C@H](Cc4ccccc4)N3C2=O)C=C2c3cccc4[nH]cc(c34)C[C@H]21 [ERG, ergotamine]
Gq calcium flux agonist activity ([1]; 5-HT2BR wild-type): Gq partial agonists

CC[C@@H](CO)NC(=O)[C@@H]1C=C2c3cccc4[nH]cc(c34)C[C@H]2N(C)C1 [methylergonovine]
Gq calcium flux agonism [2]: significantly diminished | binding affinity [3]: significantly diminished | β-arrestin2 recruitment [4]: failed to recruit β-arrestin2 | Gq calcium flux agonism [5]: significantly diminished | binding affinity [6]: did not substantially affect | binding affinity [7]: spared | EC50 [8]: 15 nM | Emax ([8]; read-out: Gq calcium flux Emax): 58% | binding affinity [9]: significantly diminished | binding affinity [10]: did not substantially affect | Gq calcium flux agonist activity ([1]; 5-HT2BR wild-type): Gq partial agonists | Gq calcium flux Emax ([1]; 5-HT2BR wild-type): 64% | EC50 ([1]; Gq calcium flux EC50, 5-HT2BR wild-type): 31 nM and 19 nM and 23 nM and 21 nM | EC50 ([11]; Gq calcium flux EC50, A225G^5.46 mutant): 12 nM | Emax [11]: 55% | EC50 [12]: 1.2 nM | EC50 [13]: 18 nM | Emax ([13]; read-out: Gq calcium flux Emax): 64%

CCN(CC)C(=O)[C@@H]1C=C2c3cccc4[nH]cc(c34)C[C@H]2N(C)C1 [LSD, lysergic acid diethylamide]
β-arrestin recruitment agonism [14]: abolished | Gq calcium flux agonist activity ([1]; 5-HT2BR wild-type): Gq partial agonists | Gq calcium flux Emax ([1]; 5-HT2BR wild-type): 82% and 79% | Gq calcium flux Emax [15]: 67% | faster dissociation rate compared to 5-HT2BR WT [16]: greater than 10 fold | time-dependent recruitment of β-arrestin [17]: attenuated

CC[C@@H](CO)NC(=O)[C@@H]1C=C2c3cccc4c3c(cn4C)C[C@H]2N(C)C1 [methysergide]
Gq calcium flux agonism [2]: failed to demonstrate any measureable Gq agonist activity | Gq calcium flux agonist activity ([1]; 5-HT2BR wild-type): lack of agonist activity | Emax [11]: 54%

Cc1ccc2[nH]c3c(c2c1)CCNC3Cc1ccccc1Cl (centres unmarked) [2-ClBenzyl]
Gq calcium flux Emax ([1]; 5-HT2BR wild-type): 28% | EC50 [1, 21]: 35 nM

Cc1ccc2[nH]c3c(c2c1)CCNC3Cc1ccccc1 (centres unmarked) [unsubstituted Benzyl]
Gq calcium flux agonist activity ([1]; 5-HT2BR wild-type): no detectible Gq agonist activity

COc1ccc(CC2NCCc3c2[nH]c2ccc(C)cc32)c(Cl)c1OC (centres unmarked) [LY266097]
Gq function via PI hydrolysis [18]: Gq partial agonism | Gq calcium flux agonist activity ([1]; 5-HT2BR wild-type): modest Gq partial agonism | Gq calcium flux Emax ([1]; 5-HT2BR wild-type): 62% and 54% | EC50 [1, 21]: 37 nM and 41 nM | β-arrestin2 antagonism by BRET [19]: potent β-arrestin2 antagonism | β-arrestin2 recruitment by BRET ([19]; real-time, across specific time points): At no tested time point did LY266097 display β-arrestin2 recruitment | Gq agonist activity [20]: abolished | β-arrestin2 recruitment activity ([12]; 5-HT2BR WT): without detectable β-arrestin2 activity; also recorded: no β-arrestin2 recruitment activity

From paper PMC6237183 (Nature structural & molecular biology, 2018)
